# PubChem BioAssay (NCI)
#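 Compound exposure: 48 hours, 5 concentrations, 96-well plates. The concentration for full growth arrest is given as TGI.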 Where a SMILES comes first, the peptide text is derived from it. [ ]: non-standard residue; d: D form. The star is where a group is joined. ξ: configuration not given here. ξF = NC(Cc1ccccc1)C(=O)O; Cbz = O=C(OCc1ccccc1)*; Aib = CC(C)(N)C(=O)O; NHNH2 = NN*
# How the values were obtained:
# Experiment in all cases: NCI anticancer screen, dose series, 48 h
# K-562 leukemia = system: K-562 leukemia
# MCF7 breast = system: MCF7 breast
# IGROV1 ovarian = system: IGROV1 ovarian
# OVCAR-5 ovarian = system: OVCAR-5 ovarian
# PC-3 prostate = system: PC-3 prostate
# COLO 205 colon = system: COLO 205 colon
# SF-539 CNS = system: SF-539 CNS
# OVCAR-3 ovarian = system: OVCAR-3 ovarian
# MDA-MB-231 breast = system: MDA-MB-231 breast
# RPMI-8226 leukemia = system: RPMI-8226 leukemia
# SNB-19 CNS = system: SNB-19 CNS
# HCT-15 colon = system: HCT-15 colon
# SN12C renal = system: SN12C renal
# HCT-116 colon = system: HCT-116 colon
# NCI/ADR-RES ovarian = system: NCI/ADR-RES ovarian
# SNB-75 CNS = system: SNB-75 CNS
# SR leukemia = system: SR leukemia
# TK-10 renal = system: TK-10 renal
# HS 578T breast = system: HS 578T breast
Compound,TGI (K-562 leukemia),TGI (MCF7 breast),TGI (IGROV1 ovarian),TGI (OVCAR-5 ovarian),TGI (PC-3 prostate),TGI (COLO 205 colon),TGI (SF-539 CNS),TGI (OVCAR-3 ovarian),TGI (MDA-MB-231 breast),TGI (RPMI-8226 leukemia),TGI (SNB-19 CNS),TGI (HCT-15 colon),TGI (SN12C renal),TGI (HCT-116 colon),TGI (NCI/ADR-RES ovarian),TGI (SNB-75 CNS),TGI (SR leukemia),TGI (TK-10 renal),TGI (HS 578T breast)
COc1ccccc1NC(=S)NN=C(C)c1cccc(C(C)=NNC(=S)Nc2ccccc2OC)n1,> 100 µM,> 100 µM,> 100 µM,> 100 µM,> 100 µM,> 100 µM,62.4 µM,> 100 µM,68.9 µM,> 100 µM,> 100 µM,> 100 µM,> 100 µM,11.1 µM,34.7 µM,> 100 µM,17.2 µM,–,–
CC(=O)O[C@H]1C(=O)[C@@]2(C)[C@H]([C@H](OC(=O)c3cccc([N+](=O)[O-])c3)[C@]3(O)C[C@H](OC(=O)[C@H](O)[C@@H](NC(=O)c4ccccc4)c4ccccc4)C(C)=C1C3(C)C)[C@]1(OC(C)=O)CO[C@@H]1C[C@@H]2O,–,> 17.1 µM,> 25 µM,16.4 µM,> 25 µM,–,0.00254 µM,0.0183 µM,> 25 µM,18.1 µM,> 25 µM,> 25 µM,> 25 µM,> 25 µM,> 25 µM,0.295 µM,0.113 µM,> 21.8 µM,0.00761 µM
CCc1ccccc1N=NC(=O)NNc1ccccc1CC,68.5 µM,36.3 µM,26 µM,29.4 µM,37.5 µM,–,–,33.2 µM,50.1 µM,77.3 µM,95 µM,38.1 µM,35.7 µM,29 µM,–,45.7 µM,57.1 µM,50.1 µM,–
Cc1cc2c(c(C=Nc3ccccc3O)c1)OC1(C=C2)Oc2ccccc2C(=O)N1C (configuration not stated),62.2 µM,–,58.5 µM,30 µM,48.7 µM,54.5 µM,–,29.4 µM,37.5 µM,84.3 µM,> 100 µM,30.9 µM,46.5 µM,27.5 µM,37.5 µM,52.3 µM,48 µM,48 µM,55.3 µM
COc1ccc(C2N(c3ccc(F)cc3)C(=O)N3C(c4ccc(OC)cc4)N(c4ccc(F)cc4)C(=O)N23)cc1 (configuration not stated),–,–,> 100 µM,> 100 µM,> 100 µM,> 100 µM,> 100 µM,> 100 µM,> 100 µM,> 100 µM,> 100 µM,> 100 µM,> 100 µM,> 100 µM,> 100 µM,> 100 µM,> 100 µM,> 100 µM,> 100 µM
COC(=O)C1CCC(=O)N1CN(C(C)=O)c1ccccc1Cl (configuration not stated),–,> 100 µM,> 100 µM,> 100 µM,> 100 µM,> 100 µM,> 100 µM,> 100 µM,> 100 µM,> 100 µM,> 100 µM,> 100 µM,> 100 µM,> 100 µM,> 100 µM,> 100 µM,> 100 µM,> 100 µM,> 100 µM
CC(C)=CCC[C@]1(C)C=Cc2c(O)c3c(c(CC=C(C)C)c2O1)O[C@]12C(=C[C@@H]4CC1C(C)(C)O[C@@]2(C/C=C(/C)C(=O)O)C4=O)C3=O,–,1.42 µM,2.81 µM,2.94 µM,2.23 µM,–,0.477 µM,2.67 µM,4.23 µM,1.61 µM,7.36 µM,–,4.69 µM,1.5 µM,6.96 µM,3.28 µM,0.939 µM,2.47 µM,9.68 µM
O=C1C[C@H](c2ccccc2)O[C@@H](c2ccccc2)C1,72.3 µM,> 100 µM,> 100 µM,> 100 µM,> 100 µM,> 100 µM,> 100 µM,> 100 µM,> 100 µM,> 100 µM,> 100 µM,> 100 µM,> 100 µM,> 100 µM,> 100 µM,> 100 µM,–,–,> 100 µM
CN(C)CCCN1C(=S)N(CCCN(C)C)c2c3ccccc3nc3c([N+](=O)[O-])ccc1c23,> 37.6 µM,19.4 µM,16.9 µM,39.5 µM,> 42.4 µM,4.8 µM,23 µM,24.4 µM,24 µM,50.6 µM,26 µM,21.9 µM,18.1 µM,16 µM,27.9 µM,23.1 µM,–,24.2 µM,41 µM
CC(C)(NC(=O)OCc1ccccc1)C(=O)NC(Cc1ccccc1)C(=O)NN (configuration not stated) (Cbz-[Aib]-[ξF]-NHNH2),> 100 µM,> 100 µM,> 100 µM,> 100 µM,> 100 µM,> 100 µM,> 100 µM,> 100 µM,> 100 µM,> 100 µM,> 100 µM,> 100 µM,> 100 µM,–,> 100 µM,> 100 µM,–,> 100 µM,> 100 µM
C[C@@H](c1ccccc1)n1c(N)c(-c2ccccn2)c2ccc([N+](=O)[O-])cc2c1=O,–,–,–,–,> 100 µM,> 100 µM,–,–,> 100 µM,–,> 100 µM,> 100 µM,> 100 µM,> 100 µM,> 100 µM,63 µM,> 100 µM,> 100 µM,> 100 µM
CCCNC(=S)/N=C/c1c(O)cc(C)oc1=O,–,> 100 µM,> 100 µM,> 100 µM,> 100 µM,> 100 µM,> 100 µM,> 100 µM,> 100 µM,–,> 100 µM,> 100 µM,> 100 µM,> 100 µM,> 100 µM,> 100 µM,–,> 100 µM,–
CC(=O)C1=C(C)N2C(=NC3=C(CCc4ccccc43)C2c2ccc(F)cc2)S1 (configuration not stated),90.4 µM,> 100 µM,> 100 µM,> 100 µM,> 100 µM,> 100 µM,> 100 µM,> 100 µM,> 100 µM,85 µM,> 100 µM,–,> 100 µM,> 100 µM,> 100 µM,> 100 µM,–,–,> 100 µM
